From patent US7960427B2, “5-hydroxyindole-3-carboxylate derivatives and uses thereof” (priority 2004, dated 2011) come the findings set out here.

Data set [1] relates to 2.2.15 cells. The data set is described as follows: Cytotoxicity (TC50) in 2.2.15 cells. It is filed as cell-based. On the procedure:
(§1) All compounds were evaluated for their anti-HBV activities, namely the ability to inhibit the replication of HBV DNA and the production of HBsAg and HBeAg in HBV-infected 2.2.15 cells.
(§2) The samples were dissolved in DMSO for appropriate concentrations, and then each was diluted 3-fold with culture medium. The 2.2.15 cells were planted into 96-well culture plates. […] The culture supernatants and 2.2.15 cells were collected respectively on the 8th plant day. The secretion concentrations of HBsAg and HBeAg in the culture supernatants were measured by RIA on SPRIA Kit for Detection of HBsAg and HBeAg (Beijing North Institute of Biological Technology), and the replication of HBV DNA was measured by dot hybridization with a^32PdCTP (FuRui Biological Technology Ltd., China).

For data set [2], the system named is HBV DNA. In words: In vitro anti-HBV activity: replication of HBV DNA in 2.2.15 cells (dot hybridization). It is filed as cell-based, Hepatitis B virus (HBV). As to conditions: for IC50: Hepatitis B virus, read-out: DNA replication IC50; for DNA replication SI: selectivity index. As to the method: as §1, §2
For data set [3], the target named is T1, HIV-1 protease (Human immunodeficiency virus type 1 group M subtype B, UniProt P04585).
T1 construct: The genetically engineered target enzyme (HIV-1 protease, preserved at −85° C.)
In words: Anti-HIV-1 protease activity (fluorescence labeled substrate). It is filed as biochemical. To be noted: for inhibition ratio at 0.5 ug/ml: sample concentration 0.5 ug/ml; for inhibition ratio at 2.0 ug/ml: sample concentration 2.0 ug/ml; for inhibition ratio at 10 ug/ml: sample concentration 10 ug/ml; for inhibition ratio at 50 ug/ml: sample concentration 50 ug/ml; for inhibition ratio at 250 ug/ml: sample concentration 250 ug/ml. As to the method: HIV-1 protease can cut the fluorescence labeled substrate under optimal condition and reaction system, so the activity of enzyme is determined by the fluorescence in the product of enzymatic reaction. The samples are added into the reaction system to observe the inhibitive effect on the enzyme.
The samples and the reference drug Indinavir ([…].) were dissolved in DMSO or redistilled water for appropriate concentration. Each was diluted 5-fold and then added into the buffer containing fluorescence labeled substrate (MP Co.). The genetically engineered target enzyme (HIV-1 protease, preserved at −85° C.) was added to the buffer and incubated under the optimal reaction condition. The fluorescence was determined by FLUO star Galaxy fluorometer.

Values after ≈ are worked out from the molar mass of the structure shown.

The term IC50 denotes the concentration needed to halve the response being measured. In data set [1], `Nc1ccn([C@@H]2CS[C@H](CO)O2)c(=O)n1` [Example 3TC, Lamivudine, reference compound] yielded a TC50 of 1600 µg/mL (≈ 6980 µM). Moreover, the IC50 in data set [2] stood at 228 µg/mL (≈ 994 µM).
`CCOC(=O)c1c(C[S+]([O-])c2cccc(Cl)c2)n(C)c2cc(Br)c(O)c(CN3CCOCC3)c12` (centres unmarked) [Example 59, Ethyl 6-bromo-5-hydroxy-1-methyl-4-(morpholinomethyl)-2-[(3-chlorophenyl)sulfinylmethyl]-1H-indole-3-carboxylate] gave a TC50 in data set [1] of 288.68 µg/mL (≈ 507 µM). Further, in data set [2], the IC50 came to 26.6 µg/mL (≈ 46.7 µM) and the “DNA replication SI” value is recorded as 10.8.
For `CCOC(=O)c1c(C[S+]([O-])Cc2ccc(F)cc2)n(C)c2cc(Br)c(O)c(CN3CCOCC3)c12.Cl` (centres unmarked) [Example 64, Ethyl 6-bromo-5-hydroxy-1-methyl-4-(morpholinomethyl)-2-[(4-fluorobenzyl)sulfinylmethyl]-1H-indole-3-carboxylate hydrochloride] the same measures were 24.69 µg/mL, 0.76 µg/mL and 32.48.
Taken in the same sequence, the figures for `CCOC(=O)c1c(C[S+]([O-])Cc2ccoc2)n(C)c2ccc(O)c(CN3CCCCC3)c12.Cl` (centres unmarked) [Example 77, Ethyl 5-hydroxy-1-methyl-4-(piperidinomethyl)-2-[(3-furylmethyl)sulfinylmethyl]-1H-indole-3-carboxylate hydrochloride] were 74.07 µg/mL, 18.1 µg/mL and 4.09.
For `CCOC(=O)c1c(C[S+]([O-])Cc2ccc(F)cc2)n(C)c2cc(Br)c(O)c(CN(C)C)c12` (centres unmarked) [Example 80, Ethyl 6-bromo-4-[(dimethylamino)methyl]-5-hydroxy-1-methyl-2-[(4-fluorobenzyl)sulfinylmethyl]-1H-indole-3-carboxylate] the same measures were below 0.91 µg/mL, 0.27 µg/mL (≈ 0.514 µM) and 3.37.
With `CCOC(=O)c1c(C[S+]([O-])Cc2cccc(F)c2)n(C)c2cc(Br)c(O)c(CN(C)C)c12` (centres unmarked) [Example 81, Ethyl 6-bromo-4-[(dimethylamino)methyl]-5-hydroxy-1-methyl-2-[(3-fluorobenzyl)sulfinylmethyl]-1H-indole-3-carboxylate], in data set [1], the TC50 is 35.61 µg/mL (≈ 67.8 µM). For the same compound, in data set [2], the IC50 came to 0.715 µg/mL (≈ 1.36 µM) and the “DNA replication SI” value came to 49.8.
For `CCOC(=O)c1c(CS(=O)(=O)Cc2ccc(F)cc2)n(C)c2cc(Br)c(O)c(CN3CCCC3)c12` [Example 84, Ethyl 6-bromo-5-hydroxy-1-methyl-4-(1-pyrrolidinylmethyl)-2-[(4-fluorobenzyl)sulfonylmethyl]-1H-indole-3-carboxylate] the same measures were 24.69 µg/mL (≈ 43.5 µM), 0.58 µg/mL (≈ 1.02 µM) and 42.57.
Regarding `CCOC(=O)c1c(CS(=O)(=O)Cc2ccco2)n(C2CC2)c2ccc(O)c(CN3CCCC3)c12` [Example 85], the TC50 in data set [1] is 14.26 µg/mL (≈ 29.3 µM). Moreover, in data set [2], the IC50 turned out to be 1.52 µg/mL (≈ 3.12 µM) and the “DNA replication SI” value turned out to be 9.38.
For `CCOC(=O)c1c(C[S+]([O-])Cc2ccc(F)cc2)n(C)c2cc(Br)c(O)c(CN3CCCCC3)c12` (centres unmarked) [Example 86, Ethyl 6-bromo-5-hydroxy-1-methyl-4-(piperidinomethyl)-2-[(4-fluorobenzyl)sulfinylmethyl]-1H-indole-3-carboxylate] the same measures were 7.13 µg/mL (≈ 12.6 µM), 0.64 µg/mL (≈ 1.13 µM) and 11.14.
Taken in the same sequence, the figures for `CCOC(=O)c1c(C[S+]([O-])Cc2cccc(F)c2)n(C)c2cc(Br)c(O)c(CN3CCOCC3)c12` (centres unmarked) [Example 87, Ethyl 6-bromo-5-hydroxy-1-methyl-4-(morpholinomethyl)-2-[(3-fluorobenzyl)sulfinylmethyl]-1H-indole-3-carboxylate] were 21.39 µg/mL (≈ 37.7 µM), 0.53 µg/mL (≈ 0.934 µM) and 40.35.
Taken in the same sequence, the figures for `CCOC(=O)c1c(C[S+]([O-])c2ccc(F)cc2)n(C2CC2)c2cc(Br)c(O)c(Cn3ccnc3)c12` (centres unmarked) [Example 117, Ethyl 6-bromo-1-cyclopropyl-5-hydroxy-4-[(1-imidazoly)methyl]-2-[(4-fluorophenyl)sulfinylmethyl]-1H-indole-3-carboxylate] were 55.56 µg/mL (≈ 99.1 µM), 11.4 µg/mL (≈ 20.3 µM) and 4.87.
`CCOC(=O)c1c(C[S+]([O-])c2ccc(F)c(F)c2)n(C2CC2)c2cc(Br)c(O)c(Cn3ccnc3)c12` (centres unmarked) [Example 119, Ethyl 6-bromo-1-cyclopropyl-5-hydroxy-4-[(1-imidazolyl)methyl]-2-[(3,4-difluorophenyl)sulfinylmethyl]-1H-indole-3-carboxylate]: the TC50 in data set [1] amounted to 21.11 µg/mL (≈ 36.5 µM). Further, in data set [2], the IC50 came to 3.6 µg/mL (≈ 6.22 µM) and the “DNA replication SI” value was found to be 5.8.
For `CCOC(=O)c1c(C[S+]([O-])c2ccccc2F)n(C)c2cc(Br)c(O)c(Cn3ccnc3)c12` (centres unmarked) [Example 125, Ethyl 6-bromo-5-hydroxy-4-[(1-imidazolyl)methyl]-1-methyl-2-[(2-fluorophenyl)sulfinylmethyl]-1H-indole-3-carboxylate] the same measures were 48.1 µg/mL (≈ 90 µM), 8.76 µg/mL (≈ 16.4 µM) and 5.49.
On to `CCOC(=O)c1c(C[S+]([O-])Cc2ccco2)n(C2CC2)c2cc(Br)c(O)c(Cn3ccnc3)c12` (centres unmarked) [Example 130, Ethyl 6-bromo-1-cyclopropyl-5-hydroxy-4-[(1-imidazolyl)methyl]-2-[(2-furylmethyl)sulfinylmethyl]-1H-indole-3-carboxylate], for which, in data set [1], the TC50 turned out to be 24.69 µg/mL (≈ 45.2 µM). In addition, in data set [2], the IC50 came to 5.94 µg/mL (≈ 10.9 µM) and the “DNA replication SI” value was 4.16.
For the compound `CCOC(=O)c1c(C[S+]([O-])c2ccccc2)n(C)c2cc(Br)c(O)c(Cn3ccnc3C)c12` (centres unmarked) [Example 131, Ethyl 6-bromo-5-hydroxy-1-methyl-4-[(2-methyl-1-imidazolyl)methyl]-2-(phenylsulfinylmethyl)-1H-indole-3-carboxylate], in data set [3], the IC50 was 294 µM, the “inhibition ratio at 0.5 ug/ml” value was determined as 4.6, the “inhibition ratio at 2.0 ug/ml” value is recorded as 14.6 and the “inhibition ratio at 10 ug/ml” value worked out at 7.1. Moreover, in data set [3], the “inhibition ratio at 50 ug/ml” value stood at 7.7 and the “inhibition ratio at 250 ug/ml” value stood at 55.1.
The compound `CCOC(=O)c1c(C[S+]([O-])c2ccc(F)c(F)c2)n(C)c2cc(Br)c(O)c(Cn3ccnc3C)c12.Cl` (centres unmarked) [Example 133, Ethyl 6-bromo-5-hydroxy-1-methyl-4-[(2-methyl-1-imidazolyl)methyl]-2-[(3,4-difluorophenyl)sulfinylmethyl]-1H-indole-3-carboxylate hydrochloride] showed a TC50 in data set [1] of 40.0 µg/mL. Also, in data set [2], the IC50 was 6.37 µg/mL and the “DNA replication SI” value came out at 6.28.
With `CCOC(=O)c1c(CS(=O)(=O)c2ccc(F)c(F)c2)n(C2CC2)c2cc(Br)c(O)c(Cn3ccnc3)c12` [Example 160, Ethyl 6-bromo-1-cyclopropyl-5-hydroxy-4-[(1-imidazolyl)methyl]-2-[(3,4-difluorophenyl)sulfonylmethyl]-1H-indole-3-carboxylate], in data set [3], the IC50 was 21.3 µM, the “inhibition ratio at 0.5 ug/ml” value came to 6.1, the “inhibition ratio at 2.0 ug/ml” value is recorded as 11.7 and the “inhibition ratio at 10 ug/ml” value is reported as 29.1. For the same compound, in data set [3], the “inhibition ratio at 50 ug/ml” value came out at 71.8 and the “inhibition ratio at 250 ug/ml” value was 97.8.
